Measurements reported in patent US20260070928A1, “NOVEL CRYSTALLINE FORMS OF (S)-7-OXA-2-AZA-SPIRO[4.5]DECANE-2-CARBOXYLIC ACID [7-(3,6-DIHYDRO-2H-PYRAN-4-YL)-4-METHOXY-THIAZOLO[4,5-C]PYRIDIN-2-YL]-AMIDE AND CO-CRYSTAL FORMS THEREOF” (Domain Therapeutics S.A., priority 2022, published 2026).

Tests used:
[1] = water vapour sorption isotherm (25° C.), DVS intrinsic system; hygroscopicity according to Ph. Eur. 5.11; format: physicochemical; details: for water uptake levels (water vapour sorption): 25° C.
From the text: The amorphous state can be classified as hygroscopic according to Ph. […] The water vapour sorption isotherm was acquired on a DVS intrinsic system from SMS.
Eur. criteria (section 5.11.).
The water vapour sorption isotherm was acquired on a DVS Intrinsic system from SMS.
(§1) The mono fumaric acid co-crystal form A1 is characterised by the following physical properties: • 1 eq. […] The DSC scan of mono fumaric acid co-crystal form A1 was acquired on a Mettler-Toledo DSC1 with a heating rate of 5 K/min, using nitrogen purge gas at 50 mL/min. […] Eur. criteria (section 5.11.). […] The water vapour sorption isotherm was acquired on a DVS intrinsic system from SMS. • The concentration levels of the mono fumaric acid co-crystal form A1 were determined at 37° C. after 15 min and 30 min in non-sink-dissolution experiments.
(§2) The hemi fumaric acid co-crystal form A2 is characterised by the following physical properties: • 0.5 eq. […] The DSC scan of the hemi fumaric acid co-crystal form A2 was acquired on a Mettler-Toledo DSC1 with a heating rate of 5 K/min, using nitrogen purge gas at 50 mL/min. […] Eur. Criteria (section 5.11.). […] The water vapour sorption isotherm was acquired on a DVS intrinsic system from SMS. • The concentration levels of the hemi fumaric acid co-crystal form A2 were determined at 37° C. after 15 min and 30 min in non-sink-dissolution experiments.

[2] = non-sink dissolution experiments in biorelevant media at 37° C.; format: physicochemical; details: for Dissolution levels after 15 min / Dissolution levels after 30 min: 37° C., non-sink dissolution; for dissolution behaviour in biorelevant intestinal milieu (FaSSIF) compared to crystalline entities of the free compound: comparison in words
Procedure: as §1, §2

[3] = full relative humidity range 0-98% RH

SMILES	hygroscopicity classification according to Ph. Eur. criteria (section 5.11.) ([1]; 25° C. water vapour sorption)	tendency to undergo hydrate formation upon exposure to elevated RH levels [1]	Dissolution levels after 15 min ([2]; FaSSIF [pH 6.5]) [µg/mL]	Dissolution levels after 30 min ([2]; FaSSIF [pH 6.5])	dissolution behaviour in biorelevant intestinal milieu (FaSSIF) compared to crystalline entities of the free compound [2]	Dissolution levels after 15 min ([2]; FeSSIF [pH 5.0]) [µg/mL]	Dissolution levels after 30 min ([2]; FeSSIF [pH 5.0]) [µg/mL]	Dissolution levels after 15 min ([2]; SGF [pH 1.2]) [µg/mL]	Dissolution levels after 30 min ([2]; SGF [pH 1.2]) [µg/mL]	water uptake levels (water vapour sorption) [1, 3]	further results
COc1ncc(C2=CCOCC2)c2sc(NC(=O)N3CC[C@@]4(CCCOC4)C3)nc12 [mono 3-hydroxybenzoic acid co-crystal form NF1] [(S)-7-Oxa-2-aza-spiro[4,5]decane-2-carboxylic acid [7-(3,6-dihydro2H-pyran-4-yl)-4-methoxy-thiazolo[4,5-c]pyridin-2-yl]-amide]	Not hygroscopic	no tendency to undergo hydrate formation	–	–	–	–	–	–	–	–	–
COc1ncc(C2=CCOCC2)c2sc(NC(=O)N3CC[C@@]4(CCCOC4)C3)nc12 [mono fumaric acid co-crystal form A1, (S)-7-Oxa-2-aza-spiro[4,5]decane-2-carboxylic acid [7-(3,6-dihydro2H-pyran-4-yl)-4-methoxy-thiazolo[4,5-c]pyridin-2-yl]-amide]	Slightly hygroscopic	no tendency to undergo hydrate formation	278	360 µg/mL	improved dissolution behaviour	375	462	331	385	< 3 % (w/w)	–
COc1ncc(C2=CCOCC2)c2sc(NC(=O)N3CC[C@@]4(CCCOC4)C3)nc12 [crystalline anhydrous form A1, (S)-7-Oxa-2-aza-spiro[4,5]decane-2-carboxylic acid [7-(3,6-dihydro2H-pyran-4-yl)-4-methoxy-thiazolo[4,5-c]pyridin-2-yl]-amide]	Slightly hygroscopic	no tendency to undergo hydrate formation	–	–	–	–	–	–	–	–	hygroscopicity classification according to Ph. Eur. criteria (section 5.11.) ([1]; 25° C. water vapour sorption, listed as A1 form): slightly hygroscopic; water uptake levels (water vapour sorption) ([1]; full relative humidity range 0-98% RH, listed as A1 form): < 1 % (w/w)
COc1ncc(C2=CCOCC2)c2sc(NC(=O)N3CC[C@@]4(CCCOC4)C3)nc12 [hemi fumaric acid co-crystal form A2, (S)-7-Oxa-2-aza-spiro[4,5]decane-2-carboxylic acid [7-(3,6-dihydro2H-pyran-4-yl)-4-methoxy-thiazolo[4,5-c]pyridin-2-yl]-amide]	slightly hygroscopic	–	317	492 µg/mL	improved dissolution behaviour	651	899	206	292	–	water uptake levels (water vapour sorption) ([1]; relative humidity range 0-80% RH): ≤ 0.7 % (w/w)
COc1ncc(C2=CCOCC2)c2sc(NC(=O)N3CC[C@@]4(CCCOC4)C3)nc12 [hemi tartaric acid co-crystal form NF2, (S)-7-Oxa-2-aza-spiro[4,5]decane-2-carboxylic acid [7-(3,6-dihydro2H-pyran-4-yl)-4-methoxy-thiazolo[4,5-c]pyridin-2-yl]-amide]	–	–	–	approx. 145 μg/mL	–	–	–	–	–	–	–
COc1ncc(C2=CCOCC2)c2sc(NC(=O)N3CC[C@@]4(CCCOC4)C3)nc12 [amorphous state, (S)-7-Oxa-2-aza-spiro[4,5]decane-2-carboxylic acid [7-(3,6-dihydro2H-pyran-4-yl)-4-methoxy-thiazolo[4,5-c]pyridin-2-yl]-amide]	hygroscopic	–	–	–	–	–	–	–	–	> 22 % (w/w)	humidity level at which tendencies for deliquescence are shown ([1]; 25° C. water vapour sorption): > 90 % RH
